Experimental findings from patent US20240140991A1, “ANTIBIOTIC NATURAL PRODUCT ANALOGUES” (THE QUEEN'S UNIVERSITY OF BELFAST, priority 2021, published 2024) are described below.

Values after ≈ are worked out from the molar mass of the structure shown. Positions of bridges follow the written chain, without caps; N, C: chain ends. Non-standard residues stand in square brackets, D forms with d. Residues, ends and D or L forms follow the SMILES beside them. ξ: configuration not given here. *: point of attachment. Octanoyl(7-Me) = CC(C)CCCCCC(=O)*; Hexanoyl(4ξ-Me) = CCC(C)CCC(=O)*; dOrn = NCCC[C@@H](N)C(=O)O; Octanoyl = CCCCCCCC(=O)*; Orn = NCCC[C@H](N)C(=O)O; Dap = NC[C@H](N)C(=O)O; Alloc = C=CCOC(=O)*

In data set [1] the test system is HepG2 cells. The data set is described as follows: Cytotoxicity MTT assay. To be noted: HepG2, 128 μg/mL, 24 h. The method, then:
In addition to a single vehicle control, compounds (diluted from DMSO stock) were added to each well to obtain in a final 128 μg/mL concentration (max. final DMSO concentration 0.5%) for all compounds except for oritavancin which was administered at 50 μM. Incubation was done for 24 h at 37° C., 7% CO2. After the incubation, MTT was added to each well at a final concentration of 0.40 mg/mL. The plates were then incubated for 2 h at 37° C., 7% CO2. Medium was carefully removed via suction, and purple formazan crystals were resuspended in 100 μL DMSO. Absorbance was read at 570 nm using a Clariostar plate reader. The data was then analysed with GraphPad Prism software. Technical triplicates for each condition were used, along with biological duplicates.
In general terms: Formazan colour is commonly taken as a measure of viable cells.

In data set [2] the test system is E. Coli NCTC 12241. Format: cell-based. The protocol:
(§1) Minimum inhibitory concentration (MIC) was determined by broth microdilution according to CLSI guidelines. Blood agar plates were inoculated with glycerol stocks of Escherichia coli ATCC 25922, E. coli ATCC 25922 MCR-1, E. coli MCR-1 (clinical isolate from Utrecht Medical Center, NL), E. coli EQAS MCR-2 (clinical isolate from Wageningen University and Research, NL), Kiebsielia pneumoniae ATCC 11228, K. pneumoniae ATCC 13883, K. pneumonia 2048 (clinical isolate from Vrije Universiteit Amsterdam Medical Center, NL), K. pneumonia JS-123 (clinical isolate from Utrecht Medical Center, NL), Acinetobacter baumannii ATCC 17961, A. baumannil ATCC 17978, A. baumannii 2018-006 (clinical isolate from Rijksinstituut voor Volksgezondheid en Milieu, NL), A. baumannii MDR (clinical isolate from Vrije Universiteit Amsterdam Medical Center, NL), Pseudomonas aeruginosa ATCC 27853, P. aeruginosa PAO1, P. aeruginosa NRZ-03961 (Reference strain from Das Nationale Referenzzentrum für gramnegative Krankenhauserreger, DE), P. aeruginosa M-120 (clinical isolate from Leiden University Medical Center, NL) and Staphylococcus aureus USA300 (clinical isolate from Texas Children's Hospitalm, USA). E. coli 25922 MCR1 was grown on LB agar supplemented with kanamycin. The inoculated agar plates were then incubated for 16 hours at 37° C. Individually grown colonies were subsequently used to inoculate 3 mL aliquots of TSB that were then incubated at 37° C. with shaking at 220 rpm. In parallel, the compounds to be assessed were serially diluted with Mueller-Hinton broth (MHB) in polypropylene 96-well plates (50 μL in each well). Once the OD600 of the bacterial suspensions reached 0.5, the bacteria were diluted with MHB (final concentration 2×10^5 CFU mL^−1) and added to the microplates containing the test compounds (50 μL to each well, final volume: 100 μL). The well-plates were sealed with an adhesive membrane and after 16 hours of incubation at 37° C. with shaking at 220 rpm the wells were visually inspected for bacterial growth. MIC values were defined as the lowest concentration of the compound that prevented visible growth of bacteria.
were tested for inhibition of E. Coli NCTC 12241.

The subject of data set [3] is A. baumannii ATCC 17978. Format: cell-based, Acinetobacter baumannii. To be noted: ATCC 17978. The method, then: as §1
In data set [4] the test system is Escherichia coli ATCC 25922. Format: cell-based. As to conditions: ATCC 25922. The gist of the method: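 Broth microdilution in MHB per CLSI; inoculum 2×10^5 CFU mL^−1 from log-phase TSB cultures at OD600 0.5. Plates incubated 16 hours at 37° C with shaking at 220 rpm. MIC is the lowest concentration preventing visible growth.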
The test system of data set [5] is P. aeruginosa PAO1. Format: cell-based, Pseudomonas aeruginosa. To be noted: PAO1. The protocol: as §1
Data set [6] concerns K. pneumoniae ATCC 11228. Format: cell-based, Klebsiella pneumoniae. To be noted: ATCC 11228. The protocol: as §1
For data set [7], the system named is E. coli ATCC 25922 MCR-1. Format: cell-based, Escherichia coli. To be noted: E. coli ATCC 25922 MCR-1 (colistin resistant). The protocol:
as §1
(§2) In the table above, “MCR” denotes that one of the MCR family of genes, which confers colistin resistance, is present in the bacterial strain. Thus, E. coli ATCC 25922 MCR-1, E. coli MCR-1 and E. coli EQAS MCR-2 are each colistin resistant. […] Therefore, laterocidamide may overcome some of the challenges faced due to antibiotic resistance.

In data set [8] the test system is E. coli MCR-1. Format: cell-based, Escherichia coli. To be noted: E. coli MCR-1 clinical isolate (colistin resistant). The method, then:
as §1, §2

Data set [9] has as its system A. baumannii MDR. Format: cell-based, Acinetobacter baumannii. As to conditions: A. baumannii MDR clinical isolate. The protocol: as §1
The test system of data set [10] is E. coli. Format: cell-based. The protocol: as §1
MIC values were determined for the lipid analogues of brevicidine.
MIC values were determined for the position 9 analogues of linear brevicidine.

On to `CCC(C)CCC(=O)N[C@H](CC(N)=O)C(=O)N[C@H](Cc1ccc(O)cc1)C(=O)N[C@H](Cc1c[nH]c2ccccc12)C(=O)N[C@H](CCCN)C(=O)N[C@@H](CCCN)C(=O)NCC(=O)N[C@H](CCCN)C(=O)N[C@@H](Cc1c[nH]c2ccccc12)C(=O)N[C@@H]1C(=O)N[C@@H]([C@@H](C)CC)C(=O)NCC(=O)N[C@@H](CO)C(=O)O[C@@H]1C` (some centres unmarked) [Brevicidine, brevicidine, reference compound] ({Hexanoyl(4ξ-Me)}-[dN][dY][dW][dOrn][Orn]G[dOrn]WTIGS; ester 9-C), for which, in data set [1], the “cytotoxicity / cell viability” value is on record as “completely non-toxic”.

On to `CCC(C)CCC(=O)N[C@H](CC(N)=O)C(=O)N[C@H](Cc1ccc(O)cc1)C(=O)N[C@H](Cc1c[nH]c2ccccc12)C(=O)N[C@H](CCCN)C(=O)N[C@@H](CCCN)C(=O)NCC(=O)N[C@H](CCCN)C(=O)N[C@@H](Cc1c[nH]c2ccccc12)C(=O)N[C@@H](C)C(=O)N[C@H](C(=O)NCC(=O)O)[C@@H](C)CC` (some centres unmarked) [MeHex- Ala OH] ({Hexanoyl(4ξ-Me)}-[dN][dY][dW][dOrn][Orn]G[dOrn]WAIG-OH), for which the “E. coli MIC” value in data set [2] came to 50 µg/mL.

Regarding `C=CCOC(=O)NC[C@H](NC(=O)[C@H](Cc1c[nH]c2ccccc12)NC(=O)[C@@H](CCCN)NC(=O)CNC(=O)[C@H](CCCN)NC(=O)[C@@H](CCCN)NC(=O)[C@@H](Cc1c[nH]c2ccccc12)NC(=O)[C@@H](Cc1ccc(O)cc1)NC(=O)[C@@H](CC(N)=O)NC(=O)CCC(C)CC)C(=O)N[C@H](C(=O)NCC(N)=O)[C@@H](C)CC` (some centres unmarked) [MeHex- Dap(Alloc) NH2] ({Hexanoyl(4ξ-Me)}-[dN][dY][dW][dOrn][Orn]G[dOrn]W[Dap](Alloc)IG-NH2), the “E. coli MIC” value in data set [2] turned out to be 0.19 µg/mL.

`C=CCOC(=O)NC[C@H](NC(=O)[C@H](Cc1c[nH]c2ccccc12)NC(=O)[C@@H](CCCN)NC(=O)CNC(=O)[C@H](CCCN)NC(=O)[C@@H](CCCN)NC(=O)[C@@H](Cc1c[nH]c2ccccc12)NC(=O)[C@@H](Cc1ccc(O)cc1)NC(=O)[C@@H](CC(N)=O)NC(=O)CCC(C)CC)C(=O)N[C@H](C(=O)NCC(=O)O)[C@@H](C)CC` (some centres unmarked) [MeHex- Dap(Alloc) OH] ({Hexanoyl(4ξ-Me)}-[dN][dY][dW][dOrn][Orn]G[dOrn]W[Dap](Alloc)IG-OH): the “E. coli MIC” value in data set [2] was 1.6 µg/mL.

As for `CC[C@H](C)[C@@H]1NC(=O)[C@@H](NC(=O)[C@H](Cc2c[nH]c3ccccc23)NC(=O)[C@@H](CCCN)NC(=O)CNC(=O)[C@H](CCCN)NC(=O)[C@@H](CCCN)NC(=O)[C@@H](Cc2c[nH]c3ccccc23)NC(=O)[C@@H](Cc2ccc(O)cc2)NC(=O)[C@H](N)CO)[C@@H](C)OC(=O)CNC(=O)CNC(=O)[C@H](CC(N)=O)NC1=O` [NH2] (H-[dS][dY][dW][dOrn][Orn]G[dOrn]WTINGG; ester 9-C), the “Minimum inhibitory concentration (MIC)” value in data set [3] is greater than 64 µg/mL; in data set [4], 32 µg/mL (≈ 21.8 µM); in data set [5], 64 µg/mL (≈ 43.7 µM); in data set [6], greater than 64 µg/mL.

As for `C=CCOC(=O)NC[C@H](NC(=O)[C@H](Cc1c[nH]c2ccccc12)NC(=O)[C@@H](CCCN)NC(=O)CNC(=O)[C@H](CCCN)NC(=O)[C@@H](CCCN)NC(=O)[C@@H](Cc1c[nH]c2ccccc12)NC(=O)[C@@H](Cc1ccc(O)cc1)NC(=O)[C@@H](CC(N)=O)NC(=O)CCCCCCC)C(=O)N[C@H](C(=O)NCC(N)=O)[C@@H](C)CC` [Oct Dap(Alloc) NH2] (Octanoyl-[dN][dY][dW][dOrn][Orn]G[dOrn]W[Dap](Alloc)IG-NH2), in data set [2], the “E. coli MIC” value came out at 0.4 µg/mL.

As to `CCCCCCCC(=O)N[C@H](CC(N)=O)C(=O)N[C@H](Cc1ccc(O)cc1)C(=O)N[C@H](Cc1c[nH]c2ccccc12)C(=O)N[C@H](CCCN)C(=O)N[C@@H](CCCN)C(=O)NCC(=O)N[C@H](CCCN)C(=O)N[C@@H](Cc1c[nH]c2ccccc12)C(=O)N[C@@H](C)C(=O)N[C@H](C(=O)NCC(=O)O)[C@@H](C)CC` [Oct- Ala OH] (Octanoyl-[dN][dY][dW][dOrn][Orn]G[dOrn]WAIG-OH), the “E. coli MIC” value in data set [2] is 25 µg/mL.

In the case of `C=CCOC(=O)NC[C@H](NC(=O)[C@H](Cc1c[nH]c2ccccc12)NC(=O)[C@@H](CCCN)NC(=O)CNC(=O)[C@H](CCCN)NC(=O)[C@@H](CCCN)NC(=O)[C@@H](Cc1c[nH]c2ccccc12)NC(=O)[C@@H](Cc1ccc(O)cc1)NC(=O)[C@@H](CC(N)=O)NC(=O)CCCCCCC)C(=O)N[C@H](C(=O)NCC(=O)O)[C@@H](C)CC` [Oct- Dap(Alloc) OH] (Octanoyl-[dN][dY][dW][dOrn][Orn]G[dOrn]W[Dap](Alloc)IG-OH), the “E. coli MIC” value in [2] came to 12.5 µg/mL.

With `CC[C@H](C)[C@@H]1NC(=O)[C@@H](NC(=O)[C@H](Cc2c[nH]c3ccccc23)NC(=O)[C@@H](CCCN)NC(=O)CNC(=O)[C@H](CCCN)NC(=O)[C@@H](CCCN)NC(=O)[C@@H](Cc2c[nH]c3ccccc23)NC(=O)[C@@H](Cc2ccc(O)cc2)NC(=O)[C@@H](CO)NC(=O)CCCCCC(C)C)COC(=O)CNC(=O)CNC(=O)[C@H](CC(N)=O)NC1=O` [Ser9-Laterocidine] ({Octanoyl(7-Me)}-[dS][dY][dW][dOrn][Orn]G[dOrn]WSINGG; ester 9-C), the results for the “Minimum inhibitory concentration (MIC)” value in [7], in data set [8] and in data set [9] were 0.5 µg/mL (≈ 0.314 µM), 0.5 µg/mL (≈ 0.314 µM) and 2 µg/mL (≈ 1.26 µM), respectively.

`CCC(C)CCC(=O)N[C@H](CC(N)=O)C(=O)N[C@H](Cc1ccc(O)cc1)C(=O)N[C@H](Cc1c[nH]c2ccccc12)C(=O)N[C@H](CCCN)C(=O)N[C@@H](CCCN)C(=O)NCC(=O)N[C@H](CCCN)C(=O)N[C@@H](Cc1c[nH]c2ccccc12)C(=O)N[C@@H](CN)C(=O)N[C@H](C(=O)NCC(N)=O)[C@@H](C)CC` (some centres unmarked) [Und(9-Dap)-NH2] ({Hexanoyl(4ξ-Me)}-[dN][dY][dW][dOrn][Orn]G[dOrn]W[Dap]IG-NH2): the “E. coli MIC” value in data set [10] and in data set [2] was 3.1 µg/mL throughout.

As for `CCC(C)CCC(=O)N[C@H](CC(N)=O)C(=O)N[C@H](Cc1ccc(O)cc1)C(=O)N[C@H](Cc1c[nH]c2ccccc12)C(=O)N[C@H](CCCN)C(=O)N[C@@H](CCCN)C(=O)NCC(=O)N[C@H](CCCN)C(=O)N[C@@H](Cc1c[nH]c2ccccc12)C(=O)N[C@@H](CO)C(=O)N[C@H](C(=O)NCC(N)=O)[C@@H](C)CC` (some centres unmarked) [Und(9-Ser)-NH2] ({Hexanoyl(4ξ-Me)}-[dN][dY][dW][dOrn][Orn]G[dOrn]WSIG-NH2), the “E. coli MIC” value in [10] and in [2] was 0.78 µg/mL throughout.

For the compound `CCC(C)CCC(=O)N[C@H](CC(N)=O)C(=O)N[C@H](Cc1ccc(O)cc1)C(=O)N[C@H](Cc1c[nH]c2ccccc12)C(=O)N[C@H](CCCN)C(=O)N[C@@H](CCCN)C(=O)NCC(=O)N[C@H](CCCN)C(=O)N[C@@H](Cc1c[nH]c2ccccc12)C(=O)N[C@H](C(=O)N[C@H](C(=O)NCC(N)=O)[C@@H](C)CC)[C@@H](C)O` (some centres unmarked) [Und(9-Thr)-NH2] ({Hexanoyl(4ξ-Me)}-[dN][dY][dW][dOrn][Orn]G[dOrn]WTIG-NH2), the “E. coli MIC” value in data set [10] and in data set [2] was 1.56 µg/mL each time.
